The results in this text go back to PMC9054634 (RSC Advances, 2020).

The structures appear in SMILES notation. pKi: −log10 of the molar value.

The experiment deals with E. coli β-glucuronidase (GUS) (Escherichia coli, UniProt P05804). In words: pNPG hydrolysis by purified GUS, UPLC-UV, Lineweaver-Burk kinetics. It counts as biochemical.
E. coli β-glucuronidase (GUS), sequence (P05804 whole entry): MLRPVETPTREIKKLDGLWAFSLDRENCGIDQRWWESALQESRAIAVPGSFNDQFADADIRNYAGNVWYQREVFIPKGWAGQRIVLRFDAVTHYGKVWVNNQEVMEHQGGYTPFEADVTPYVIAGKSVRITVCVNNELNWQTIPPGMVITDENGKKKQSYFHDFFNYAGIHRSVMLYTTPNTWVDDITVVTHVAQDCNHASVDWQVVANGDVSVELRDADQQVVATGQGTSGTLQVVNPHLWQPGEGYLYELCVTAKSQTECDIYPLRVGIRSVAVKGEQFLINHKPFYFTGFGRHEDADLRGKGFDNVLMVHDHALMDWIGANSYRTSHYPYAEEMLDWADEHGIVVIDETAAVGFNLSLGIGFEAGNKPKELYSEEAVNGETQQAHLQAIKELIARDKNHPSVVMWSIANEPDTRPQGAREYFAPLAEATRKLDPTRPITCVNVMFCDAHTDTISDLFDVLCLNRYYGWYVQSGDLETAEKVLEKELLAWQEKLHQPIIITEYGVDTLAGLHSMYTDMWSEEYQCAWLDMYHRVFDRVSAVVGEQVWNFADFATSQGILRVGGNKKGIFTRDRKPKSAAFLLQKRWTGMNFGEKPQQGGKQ
For `C[C@]12CC[C@@H]3c4ccc(O)cc4CC[C@H]3[C@@H]1CC[C@@H]2O` [E2, Estradiol], the pKi (usually the negative decadic logarithm of the Ki, by convention in mol/L) is 4.50.

The molecule `CN1CCN(CCCN2c3ccccc3Sc3ccc(C(F)(F)F)cc32)CC1` [TFP, Trifluoperazine] showed a pKi of 4.24.

`C=CCc1ccc(O)c(-c2cc(CC=C)ccc2O)c1` [Mag, Magnolol] had a pKi of 4.78.
